Source: article PMC4811770 (eLife, 2016)
Structures can show the parent of a compound that is named as a salt. Where two headings read alike, the source gives them in different places.

What was measured:
wild-type sperm = assay: Intracellular pH measurement with BCECF in wild-type sperm; assay type: cell-based, mouse
tmAC = test system: T1, tmAC; assay: Maximal cAMP-dependent FRET ratio of mlCNBD-FRET in HEK293 cells after stimulation of endogenous adenylate cyclases with increasing NKH477 concentrations.; assay type: cell-based; conditions: SD, n = 4
T1 construct: endogenous in HEK293 cells, isoform not specified

[1] = test system: sperm flagellum (mlCNBD-FRET sperm); assay: Dual-view FRET imaging of cAMP dynamics in the flagellum of mlCNBD-FRET sperm; assay type: cell-based, mouse
sperm = conditions: 25 mM bicarbonate, after rapid rise at 1 min
mlCNBD-FRET = molecular target: T2, mlCNBD-FRET (Mesorhizobium japonicum, UniProt Q98GN8); assay: Spectrofluorometric titration of 1 uM purified sensor with cGMP, cerulean/citrine FRET ratio at 430 nm excitation, single-site fit.; assay type: binding; conditions: SD, n = 6
T2 construct: gene mll3241; CNBD (Phe223 to Arg349) with citrine fused to N-terminus and cerulean to C-terminus, C-terminal His10 tag
T2 sequence (Q98GN8 223-349): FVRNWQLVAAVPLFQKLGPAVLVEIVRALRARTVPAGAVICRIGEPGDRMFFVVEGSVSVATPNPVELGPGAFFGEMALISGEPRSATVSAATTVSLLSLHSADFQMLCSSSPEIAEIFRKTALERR

[2] = test system: HEK293 cells expressing mlCNBD-FRET; assay: cAMP/cGMP dynamics (FRET ratio) in HEK293 cells expressing mlCNBD-FRET after drug stimulation; assay type: cell-based; conditions: 20 µM isoproterenol, n = 9
Method: Cells were cultured in Ibidi μ-slides (Ibidi, Planegg, Germany) attached to a home-built gravity-flow perfusion system. Measurements were performed using a CellR live-cell imaging system (Olympus) with 20x objective. Cells were perfused with extracellular solution (ES: 120 mM NaCl, 5 mM KCl, 2 mM MgCl2, 2 mM CaCl2, 10 mM HEPES, 10 mM glucose, pH 7.4) to determine the basal FRET ratio and then the stimulus was added (NKH477 and IBMX, Tocris, Wiesbaden, Germany; Isoproterenol and SNP, Sigma-Aldrich). FRET was recorded by exciting cerulean at 436 nm and measuring the emission of cerulean and citrine at 470 nm and 535 nm, respectively. The change in FRET (emissioncerulean/emissioncitrine) was calculated, corrected for bleed-through, normalized to the baseline, and plotted versus time.
For population measurement using a spectrofluorometer (Quantamaster 40, PTI), HEK293 cells were trypsinized at 37°C for 5 min and washed twice with ES. […] Fluorescence spectra at steady-state were recorded with excitation at 430 nm and 0.5 s integration time. For time-resolved measurements, cells were excited at 430 nm and emission was recorded at 470 nm (cerulean) and 530 nm (citrine) at an acquisition frequency of 1 Hz. The change in FRET (emissioncerulean/emissioncitrine) was calculated, corrected for bleed-through, normalized to the baseline, and plotted versus time.

[3] = test system: HEK293 cells expressing SSTR3-mlCNBD-FRET; assay: FRET change in HEK293 cells expressing SSTR3-mlCNBD-FRET; assay type: cell-based; conditions: 20 μM isoproterenol, n = 9
Method: Cells were cultured in Ibidi μ-slides (Ibidi, Planegg, Germany) attached to a home-built gravity-flow perfusion system. Measurements were performed using a CellR live-cell imaging system (Olympus) with 20x objective. […] Isoproterenol and SNP, Sigma-Aldrich). FRET was recorded by exciting cerulean at 436 nm and measuring the emission of cerulean and citrine at 470 nm and 535 nm, respectively. The change in FRET (emissioncerulean/emissioncitrine) was calculated, corrected for bleed-through, normalized to the baseline, and plotted versus time. The full-length mouse SSTR3 cloned into pEGFP-N1 was kindly provided by Greg Pazour (UMass Medical School). For expression of SSTR3-tagged mlCNBD-FRET, the SSTR3 coding sequence was amplified by a recombinant PCR reaction to delete the internal NheI site. The fragment was subcloned into […].

[4] = stopped-flow, 10 mM NH4Cl or 25 mM bicarbonate
[5] = perfusion with 25 mM bicarbonate, n = 7

## O=C([O-])CN(CC(=O)[O-])c1ccccc1OCCOc1ccccc1N(CC(=O)[O-])CC(=O)[O-].[K+].[K+].[K+].[K+] [BAPTA, 1,2-Bis(2-aminophenoxy)ethane-N,N,N′,N′-tetraacetic acid tetrapotassium salt]
wild-type sperm; spectrofluorometer, 3 mM BAPTA reducing [Ca2+]o to 443 nM
  change in pHi: did not change pHi

## Cl.N [NH4Cl]
wild-type sperm; [4]
  change in pHi: pronounced alkalization

## C=CC1(C)CC(=O)C2(O)C(C)(O1)C(OC(C)=O)C(OC(=O)CCN(C)C)C1C(C)(C)CCC(O)C12C (centres unmarked) [NKH477, colforsin daropate hydrochloride (water-soluble forskolin derivative)]
tmAC
  EC50: 3.6 µM

## C=CC1(C)CC(=O)C2(O)C(C)(O1)C(OC(C)=O)C(OC(=O)CCN(C)C)C1C(C)(C)CCC(O)C12C (centres unmarked) [NKH477]
[1]; perfusion with 40 μM NKH477, n = 3
  cAMP change (FRET) in midpiece or principal piece: 0 ± 3%

## O=C([O-])O.[Na+] [bicarbonate, NaHCO3]
[1]; [5]
  cAMP increase (FRET) in midpiece: 26 ± 3%
  cAMP increase (FRET) in principal piece: 22 ± 10%
sperm
  time for total cAMP levels to decline to basal levels: ≤ 10 min
mlCNBD-FRET sperm; 25 mM bicarbonate, 10 μM [Ca2+]o
  change in cAMP (FRET): did not change the cAMP concentration
mlCNBD-FRET sperm; 25 mM bicarbonate, 2 mM Ca2+ buffer
  time to steady-state of free cAMP increase: about 5 min
mlCNBD-FRET sperm; bicarbonate at 2.2 nM [Ca2+]o (10 μM Ca2+/1 mM BAPTA)
  change in cAMP (FRET): did not further enhance cAMP levels
wild-type sperm; [4]
  change in pHi: did not dramatically change pHi

## Nc1nc2c(ncn2[C@@H]2O[C@@H]3COP(=O)(O)O[C@H]3[C@H]2O)c(=O)[nH]1 [cGMP, cyclic guanosine 3',5'-monophosphate]
mlCNBD-FRET
  Kd: 0.504 µM

## CC(C)NCC(O)c1ccc(O)c(O)c1 (centres unmarked) [isoproterenol]
[2]
  change of ΔF: 47 ± 3%
[3]
  increase of FRET ratio: approximately 25%
